In patent publication US20240150347A1, “INHIBITING CYCLIC AMP-RESPONSIVE ELEMENT-BINDING PROTEIN (CREB) BINDING PROTEIN (CBP)” (FORMATherapeutics,Inc., priority 2020, published 2024):
Structures can show the parent of a compound that is named as a salt.

Key:
[1] = system: human kinases and disease-relevant mutant variants; test: KINOMEscan screen for kinase inhibition; assay type: binding
[2] = system: panel of 10 bromodomains; test: AlphaScreen panel of 10 BRD; assay type: binding; details: 10 BRD of various branches of the bromodomain tree
[3] = Dynamic vapor sorption (hygroscopicity); assay type: physicochemical; details: relative humidity of up to 80%, dynamic vapor sorption isotherm plots
From the text: Dynamic Vapor Sorption (DVS) data were collected with a SMS DVS Intrinsic from Surface Measurement Systems.

Compound	binding affinity for human kinases and disease-relevant mutant variants [1]	activity against panel of 10 bromodomains [2]	water uptake [3] [%]
COC(=O)N1c2ccc3c(nc([C@H](O)c4cc(F)ccc4OC)n3[C@@H]3CCC[C@@H](C(=O)O)C3)c2CC[C@@H]1C [Compound 1, (1R,3R)-3-[(7S)-2-[(R)-(5-fluoro-2-methoxyphenyl)(hydroxy)methyl]-6-(methoxycarbonyl)-7-methyl-3H,6H,7H,8H,9H-imidazo[4,5-f]quinolin-3-yl]cyclohexane-1-carboxylic acid]	no to low binding affinity	inactive against 8	–
COC(=O)N1c2ccc3c(nc([C@H](O)c4cc(F)ccc4OC)n3[C@@H]3CCC[C@@H](C(=O)O)C3)c2CC[C@@H]1C [HCl type A salt, (1R,3R)-3-((S)-2-((R)-(5-fluoro-2-methoxyphenyl)(hydroxy)methyl)-6-(methoxycarbonyl)-7-methyl-6,7,8,9-tetrahydro-3H-imidazo [4,5-f]quinolin-3-yl)cyclohexane-1-carboxylic acid]	–	–	6.3
COC(=O)N1c2ccc3c(nc([C@H](O)c4cc(F)ccc4OC)n3[C@@H]3CCC[C@@H](C(=O)O)C3)c2CC[C@@H]1C [type B p-toluenesulfonic acid addition salt]	–	–	2.1
